PMC12259267, “Disruption of the KLHL37–N-Myc complex restores N-Myc degradation and arrests neuroblastoma growth in mouse models” (The Journal of Clinical Investigation, 2025)

Biological target: T1, KLHL37 (Homo sapiens, UniProt O14682)
T1 construct: gene ENC1; recombinant KLHL37-His (full-length cDNA, pET-28a, E. coli)
T1 sequence (O14682 1-589): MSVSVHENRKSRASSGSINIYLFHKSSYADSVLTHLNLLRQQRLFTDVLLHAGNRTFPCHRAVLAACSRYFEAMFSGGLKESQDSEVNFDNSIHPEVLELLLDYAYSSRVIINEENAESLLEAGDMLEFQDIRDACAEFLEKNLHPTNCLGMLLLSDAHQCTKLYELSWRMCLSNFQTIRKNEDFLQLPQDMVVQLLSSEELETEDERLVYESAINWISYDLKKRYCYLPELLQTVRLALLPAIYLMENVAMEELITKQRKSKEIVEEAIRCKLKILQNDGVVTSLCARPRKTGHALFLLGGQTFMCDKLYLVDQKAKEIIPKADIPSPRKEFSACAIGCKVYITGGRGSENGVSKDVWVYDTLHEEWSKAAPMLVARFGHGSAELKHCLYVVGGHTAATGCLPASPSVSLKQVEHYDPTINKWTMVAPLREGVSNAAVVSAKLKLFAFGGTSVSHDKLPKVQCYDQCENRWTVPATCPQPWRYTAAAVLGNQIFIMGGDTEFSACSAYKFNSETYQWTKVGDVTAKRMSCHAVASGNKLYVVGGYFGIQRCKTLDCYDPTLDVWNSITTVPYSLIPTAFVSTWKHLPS
Assay: SPR (Biacore X100, KLHL37-His immobilized on CM5 chip)
Assay type: binding

CC1(C)CC[C@]2(NC(=O)C(C)(F)F)CC[C@]3(C)[C@H](C(=O)C=C4[C@@]5(C)C=C(C#N)C(=O)C(C)(C)[C@@H]5CC[C@]43C)[C@@H]2C1 [RTA-408] gave a Kd of 15.2 µM.
